This is an account of results in publication PMC11124387, “A Reliable Multifaceted Solution against Foodborne Viral Infections: The Case of RiLK1 Decapeptide” (Molecules, 2024).

“And” between values parts separate entries of the source, which are not always exact repeats. Equal entries are not always repeated. Where two headings read alike, the source gives them in different places. Where a SMILES comes first, the peptide text is derived from it.

Series [1] is classed as physicochemical. On the procedure: Circular Dichroism (CD) analysis was performed by a Jasco J-810 spectropolarimeter. The samples were loaded into a quartz cuvette of 0.1 cm path length (Hellma Analytics), and the spectra were recorded in the 195–250 nm range at a scan speed of 20 nm/min, averaging 5 scans. CD experiments were carried out in 10 mM Tris-HCl buffer, pH 7.0, as a function of SDS concentrations (3, 50, and 150 mM) at a peptide concentration of 50 µM. The folding kinetic measurements of the peptides were performed after the addition of SDS (50 mM) to each sample (50 µM in 10 mM Tris-HCl, pH 7.0) up to 24 h of incubation. For thermal stability analyses, the peptides were prepared to a final concentration of 50 μM in 10 mM Tris-HCl, pH 7.0, and then they were incubated at 4 and 25 °C up to 48 h before acquiring the CD spectra in the presence of 50 mM SDS. A blank spectrum of a sample containing all components except the peptide was acquired for the baseline correction of the CD spectra of the peptide. The mean residue ellipticity ([θ], deg cm^2 dmol^−1) was obtained by the equation [θ] = 100 θ/cnl, where θ is the ellipticity (mdeg), c is the peptide concentration (mM), n is the number of residues, and l is the path length (cm).
Tryptophan (Trp) fluorescence emission spectra were recorded at 25 °C on a Shimadzu RF-6000 spectrofluorometer (Kyoto, Japan), with both excitation and emission slit widths set at 5 nm. The intrinsic Trp was excited at a wavelength of 280 nm and the emission was monitored between 300 and 400 nm. Fluorescence measurements were carried out in 10 mM Tris-HCl buffer, pH 7.0, as a function of SDS concentrations (3, 50, and 150 mM) at a peptide concentration of 50 µM. The folding kinetic experiments of AVP2 and RiLK30 were performed after the addition of SDS (50 mM) to each sample (50 µM concentration in 10 mM Tris-HCl buffer, pH 7.0) up to 24 h of incubation. The effect of temperature on peptide folding was analyzed by dissolving the peptides at a final concentration of 50 µM in 10 mM Tris-HCl buffer, pH 7.0, and incubating them at 4 and 25 °C up to 48 h. The spectra were recorded in the presence of 50 mM SDS.

For series [2], the system named is Murine norovirus strain 1 (MNV-1). Description: Cell pre-treatment assay, MNV-1. In kind it is cell-based. To be noted: cell pre-treatment: cells with peptide 80 µM 1 h 37 °C, peptide removed, then virus 1 h 37 °C, mean ± SD. The method, then:
(§1) Four sets of experiments were performed to suppose the effect of RiLK1 and RiLK3 on HAV and MNV-1 [29]. To this aim, 80 µM solutions of the two peptides and HAV and MNV-1 suspensions at a final concentration of 4.7 ± 0.2 log TCID50/mL and 4.5 ± 0.2 log TCID50/mL, respectively, were used in the following experiments: • i) A virus pre-treatment assay to assess the direct interaction between the virus and peptide: the incubation of the peptide with viral suspension for 1 h at room temperature was carried out, followed by its incubation on cells for 1 h at 37 °C. Then, cell monolayers were washed twice with PBS and incubated with 500 µL DMEM/MEM supplemented with 2% of FBS to determine the TCID50/mL. • ii) A cell pre-treatment assay to assess the interaction between the peptide and cells before the viral infection: cell monolayers were preincubated with 100 µL of peptide solution for 1 h at 37 °C, followed by the removal of the peptide, addition to cells of viral suspensions for 1 h at 37 °C, washing step, and culture with 2% FBS DMEM/MEM. • iii) An attachment assay to assess the possible action of the peptide at the stage of virus attachment to cells: cell monolayers were incubated with 100 µL of a suspension containing both the peptide and virus and were incubated for 1 h at 4 °C. Subsequently, the cell monolayers were washed with PBS and incubated for 1 h at 37 °C with a culture medium followed by a washing step and the addition of culture with 2% FBS DMEM/MEM. • iv) An entry assay to assess the possible action of the peptide at the stage of virus internalization into cells: cell monolayers were incubated with 100 µL of the viral suspension for 1 h at 4 °C, followed by the addition of the peptide and incubation for 1 h at 37 °C. Cells were then washed with PBS, and 2% FBS DMEM/MEM was finally added.
(§2) Untreated viral suspensions and peptide solutions, incubated at the same conditions, were used as controls.
(§3) For each treatment, the average and standard deviation of the triplicate analyses were calculated. The virucidal effects of AMPs was assessed by calculating the log reduction value (LRV), i.e., the difference between the infectious titer (log-transformed) of untreated versus treated samples. The statistical significance of differences between treated and untreated samples was determined through one-way analysis of variance (ANOVA) with Bonferroni post hoc comparisons, with a significance level of p < 0.05 (GraphPad Prism v9.5.0, software San Diego, CA, USA).

For series [3] the test system is unchanged. Description: Entry assay, MNV-1. In kind it is cell-based. To be noted: entry: cells with virus 1 h at 4 °C, then peptide 80 µM 1 h 37 °C, mean ± SD. On the procedure:
as §1, §2, §3

For series [4], the system named is Hepatitis A virus (HAV) strain HM-175. To be noted: cited from earlier work; for LRV (log reduction value) / Viral Titre after Treatment: RT (20 ± 2 °C), mean ± SD, ref [46] (table footnote; text b35 cites [45]). From the text: Table 2 In vitro effect of peptides on HAV. | column: Viral Titre after Treatment (logTCID50/mL ± SD) / RT; LRV (logTCID50/mL ± SD) / RT || In a previous work, the antiviral effects of RiLK1 and RiLK3 were already investigated against hepatitis A virus (HAV) following treatment at room temperature, and the obtained results are reported in Table 2. Briefly, RiLK1 was able to reduce HAV infectivity by more than 1 log in comparison with the untreated virus, displaying a log reduction value (LRV) of 1.4 at 80 μM and 1.1 at 40 μM concentration. […] Therefore, based on these preliminary results, further insights into the virucidal activity ...

The conditions of series [5]: cited from earlier work; for structural stability: pH 2; for conformation in mimicked membrane solutions (self-aggregation): ref [41],[42],[43],[44],[45]. On the procedure: In this context, to acquire important information on how the conformational properties of peptides might influence the structure–function relationships and their distinct membrane interaction profiles, the propensity of the new peptides, RiLK30 and AVP2, to adopt a defined secondary structure and to undergo conformational changes were examined by circular dichroism and fluorescence spectroscopy. These analyses were performed in the presence of a negatively charged SDS that is commonly used as a biomimetic membrane model to study the structural features of membranotropic molecules. In previous ...

Regarding “KLRWVKIWKK-NH2 [RiLK30, newly designed RiLK1 derivative, Arg residues exchanged with Lys and Lys3 with Arg]”, the “thermal (conformational) stability in SDS micellar solution” value in series [1] (pH 7) is “at least 48 h”. Also, the “conformational rearrangement over time (CD and fluorescence spectra)” value in series [1] (peptide 50 µM, 10 mM Tris-HCl pH 7.0, SDS 50 mM, 24 h incubation at 37 °C (legend: 25 °C)) is given as “did not appear to undergo significant changes”. Moreover, the “self-aggregation (CD in SDS)” value in series [1] (peptide 50 µM, 10 mM Tris-HCl pH 7.0, SDS 3, 50, 150 mM, 25 °C) is recorded as “high propensity to self-aggregate”.
For `CC[C@H](C)[C@H](NC(=O)[C@H](CCCNC(=N)N)NC(=O)[C@@H](NC(=O)[C@H](Cc1c[nH]c2ccccc12)NC(=O)[C@H](CCCCN)NC(=O)[C@H](CC(C)C)NC(=O)[C@@H](N)CCCNC(=N)N)C(C)C)C(=O)N[C@@H](Cc1c[nH]c2ccccc12)C(=O)N[C@@H](CCCNC(=N)N)C(=O)N[C@@H](CCCNC(=N)N)C(N)=O` [RiLK1] (H-RLKWVRIWRR-NH2; N-terminus assumed), the LRV stood at 0.3 ± 0.4 logTCID50/mL in series [2], 1.0 ± 0.4 logTCID50/mL in series [3] and 1.0 logTCID50/mL in series [3] (listed as RilLK1). Also, the “Viral Titre” value in series [2] was found to be 4.2 ± 0.2 logTCID50/mL; in series [3], 3.5 ± 0.2 logTCID50/mL. In addition, the “LRV (log reduction value)” value in series [4] (HAV + peptide 40 µM) is 1.1 logTCID50/mL and 1.1 ± 0.3 *^,a logTCID50/mL; in series [4] (HAV + peptide 80 µM), 1.4 logTCID50/mL and 1.4 ± 0.4 *^,a logTCID50/mL. Besides, the “Viral Titre after Treatment” value is recorded as 3.6 ± 0.1 *^,a logTCID50/mL in series [4] (HAV + peptide 40 µM) and 3.3 ± 0.2 *^,a logTCID50/mL in series [4] (HAV + peptide 80 µM). For the same compound, the “reduction of HAV infectivity in comparison with the untreated virus” value in series [4] (room temperature, ref [45]) is on record as “more than 1 log”. The structural stability result in series [5] is “high structural stability”. In addition, in series [5], the “conformation in mimicked membrane solutions (self-aggregation)” value is “higher-ordered self-aggregates”.
As for “RLRWVRIWRR-NH2 [RiLK3, RiLK1 analog differing by one amino acid (Lys replaced with Arg), C-terminally amidated]”, in series [2], the LRV is 1.0 logTCID50/mL and 1.0 ± 0.3 logTCID50/mL; the “Viral Titre” value was 3.5 ± 0.1 logTCID50/mL. Further, in series [3], the LRV amounted to 1.0 ± 0.3 logTCID50/mL and the “Viral Titre” value came out at 3.5 ± 0.1 logTCID50/mL. Besides, in series [4] (40 and 80 µM, room temperature, ref [45]), the “inhibition of HAV infection (in words)” value is recorded as “unable to inhibit HAV infection”. Moreover, in series [4] (HAV + peptide 40 µM), the “LRV (log reduction value)” value was 0.3 ± 0.3 ^a logTCID50/mL and the “Viral Titre after Treatment” value is on record as 4.4 ± 0.1 ^a logTCID50/mL. In series [4] (HAV + peptide 80 µM), the “LRV (log reduction value)” value is recorded as 0.3 ± 0.3 ^a logTCID50/mL and the “Viral Titre after Treatment” value was 4.4 ± 0.1 ^a logTCID50/mL. In series [5], the structural stability result is given as “high structural stability” and the “conformation in mimicked membrane solutions (self-aggregation)” value is “higher-ordered self-aggregates”.
